Laboratory results as given in ChEMBL document CHEMBL1671673, “In vitro activity of colistin (polymyxin E) against 3,480 isolates of gram-negative bacilli obtained from patients in Canadian hospitals in the CANWARD study, 2007-2008” (Antimicrob Agents Chemother, 2009).

Columns and labels:
Format in all cases: functional, organism-based
Serratia marcescens [1] = test: Antibacterial activity against Serratia marcescens assessed as susceptible isolates at minimum inhibitory concentration of 0.12 ug/ml by CLSI broth microdilution method; set-up: scale not given: the % may be the effect or the level left
Acinetobacter baumannii [2] = test: Antibacterial activity against Acinetobacter baumannii assessed as susceptible isolates at minimum inhibitory concentration of 4 ug/ml by CLSI broth microdilution method; set-up: scale not given: the % may be the effect or the level left
Klebsiella pneumoniae [3] = test: Antibacterial activity against ESBL-producing Klebsiella pneumoniae assessed as susceptible isolates at minimum inhibitory concentration of 0.25 ug/ml by CLSI broth microdilution method; set-up: scale not given: the % may be the effect or the level left
Enterobacter cloacae [4] = test: Antibacterial activity against Enterobacter cloacae assessed as susceptible isolates at minimum inhibitory concentration of <=0.06 ug/ml by CLSI broth microdilution method; set-up: scale not given: the % may be the effect or the level left
Klebsiella aerogenes [5] = test: Antibacterial activity against Enterobacter aerogenes assessed as susceptible isolates at minimum inhibitory concentration of 0.5 ug/ml by CLSI broth microdilution method; set-up: scale not given: the % may be the effect or the level left
Klebsiella aerogenes [6] = test: Antibacterial activity against Enterobacter aerogenes assessed as susceptible isolates at minimum inhibitory concentration of 0.25 ug/ml by CLSI broth microdilution method; set-up: scale not given: the % may be the effect or the level left
Pseudomonas aeruginosa [7] = test: Antibacterial activity against Gentamicin-resistant Pseudomonas aeruginosa assessed as susceptible isolates at minimum inhibitory concentration of 0.5 ug/ml by CLSI broth microdilution method; set-up: scale not given: the % may be the effect or the level left
Klebsiella pneumoniae [8] = test: Antibacterial activity against ESBL-producing Klebsiella pneumoniae assessed as susceptible isolates at minimum inhibitory concentration of 1 ug/ml by CLSI broth microdilution method; set-up: scale not given: the % may be the effect or the level left
[9] = test system: Stenotrophomonas maltophilia; test: Antibacterial activity against Stenotrophomonas maltophilia assessed as susceptible isolates at minimum inhibitory concentration of >16 ug/ml by CLSI broth microdilution method; set-up: scale not given: the % may be the effect or the level left
Klebsiella pneumoniae [10] = test: Antibacterial activity against ESBL-producing Klebsiella pneumoniae assessed as susceptible isolates at minimum inhibitory concentration of 4 ug/ml by CLSI broth microdilution method; set-up: scale not given: the % may be the effect or the level left
Enterobacter cloacae [11] = test: Antibacterial activity against Enterobacter cloacae assessed as susceptible isolates at minimum inhibitory concentration of 0.25 ug/ml by CLSI broth microdilution method; set-up: scale not given: the % may be the effect or the level left
Proteus mirabilis [12] = test: Antibacterial activity against Proteus mirabilis assessed as susceptible isolates at minimum inhibitory concentration of 0.25 ug/ml by CLSI broth microdilution method; set-up: scale not given: the % may be the effect or the level left
Klebsiella pneumoniae [13] = test: Antibacterial activity against ESBL-producing Klebsiella pneumoniae assessed as susceptible isolates at minimum inhibitory concentration of 8 ug/ml by CLSI broth microdilution method; set-up: scale not given: the % may be the effect or the level left
Pseudomonas aeruginosa [14] = test: Antibacterial activity against Meropenem-resistant Pseudomonas aeruginosa assessed as susceptible isolates at minimum inhibitory concentration of 1 ug/ml by CLSI broth microdilution method; set-up: scale not given: the % may be the effect or the level left
Enterobacter cloacae [15] = test: Antibacterial activity against Enterobacter cloacae assessed as susceptible isolates at minimum inhibitory concentration of 0.5 ug/ml by CLSI broth microdilution method; set-up: scale not given: the % may be the effect or the level left
Klebsiella aerogenes [16] = test: Antibacterial activity against Enterobacter aerogenes assessed as susceptible isolates at minimum inhibitory concentration of 4 ug/ml by CLSI broth microdilution method; set-up: scale not given: the % may be the effect or the level left
Enterobacter cloacae [17] = test: Antibacterial activity against Enterobacter cloacae assessed as susceptible isolates at minimum inhibitory concentration of 8 ug/ml by CLSI broth microdilution method; set-up: scale not given: the % may be the effect or the level left
Pseudomonas aeruginosa [18] = test: Antibacterial activity against Amikacin-resistant Pseudomonas aeruginosa assessed as susceptible isolates at minimum inhibitory concentration of 1 ug/ml by CLSI broth microdilution method; set-up: scale not given: the % may be the effect or the level left
Klebsiella oxytoca [19] = test: Antibacterial activity against Klebsiella oxytoca assessed as susceptible isolates at minimum inhibitory concentration of 2 ug/ml by CLSI broth microdilution method; set-up: scale not given: the % may be the effect or the level left
Klebsiella aerogenes [20] = test: Antibacterial activity against Enterobacter aerogenes assessed as susceptible isolates at minimum inhibitory concentration of <=0.06 ug/ml by CLSI broth microdilution method; set-up: scale not given: the % may be the effect or the level left
Serratia marcescens [21] = test: Antibacterial activity against Serratia marcescens assessed as susceptible isolates at minimum inhibitory concentration of >16 ug/ml by CLSI broth microdilution method; set-up: scale not given: the % may be the effect or the level left
Pseudomonas aeruginosa [22] = test: Antibacterial activity against Pseudomonas aeruginosa assessed as susceptible isolates at minimum inhibitory concentration of 0.5 ug/ml by CLSI broth microdilution method; set-up: scale not given: the % may be the effect or the level left
Pseudomonas aeruginosa [23] = test: Antibacterial activity against Pseudomonas aeruginosa assessed as susceptible isolates at minimum inhibitory concentration of 0.12 ug/ml by CLSI broth microdilution method; set-up: scale not given: the % may be the effect or the level left
Escherichia coli [24] = test: Antibacterial activity against ESBL-producing Escherichia coli assessed as susceptible isolates at minimum inhibitory concentration of >16 ug/ml by CLSI broth microdilution method; set-up: scale not given: the % may be the effect or the level left
Pseudomonas aeruginosa [25] = test: Antibacterial activity against Piperacillin-resistant Pseudomonas aeruginosa assessed as susceptible isolates at minimum inhibitory concentration of 1 ug/ml by CLSI broth microdilution method; set-up: scale not given: the % may be the effect or the level left
Pseudomonas aeruginosa [26] = test: Antibacterial activity against Ciprofloxacin-resistant Pseudomonas aeruginosa assessed as susceptible isolates at minimum inhibitory concentration of 1 ug/ml by CLSI broth microdilution method; set-up: scale not given: the % may be the effect or the level left
Escherichia coli [27] = test: Antibacterial activity against ESBL-producing Escherichia coli assessed as susceptible isolates at minimum inhibitory concentration of 2 ug/ml by CLSI broth microdilution method; set-up: scale not given: the % may be the effect or the level left
Pseudomonas aeruginosa [28] = test: Antibacterial activity against Pseudomonas aeruginosa assessed as intermediate isolates at 4 ug/ml by CLSI broth microdilution method
Pseudomonas aeruginosa [29] = test: Antibacterial activity against Amikacin-resistant Pseudomonas aeruginosa assessed as susceptible isolates at minimum inhibitory concentration of 4 ug/ml by CLSI broth microdilution method; set-up: scale not given: the % may be the effect or the level left
Acinetobacter baumannii [30] = test: Antibacterial activity against Acinetobacter baumannii assessed as susceptible isolates at minimum inhibitory concentration of 16 ug/ml by CLSI broth microdilution method; set-up: scale not given: the % may be the effect or the level left
Proteus mirabilis [31] = test: Antibacterial activity against Proteus mirabilis assessed as susceptible isolates at minimum inhibitory concentration of <=0.06 ug/ml by CLSI broth microdilution method; set-up: scale not given: the % may be the effect or the level left
Proteus mirabilis [32] = test: Antibacterial activity against Proteus mirabilis assessed as susceptible isolates at minimum inhibitory concentration of >16 ug/ml by CLSI broth microdilution method; set-up: scale not given: the % may be the effect or the level left
[33] = test system: Stenotrophomonas maltophilia; test: Antibacterial activity against Stenotrophomonas maltophilia assessed as susceptible isolates at minimum inhibitory concentration of 2 ug/ml by CLSI broth microdilution method; set-up: scale not given: the % may be the effect or the level left
Pseudomonas aeruginosa [34] = test: Antibacterial activity against Gentamicin-resistant Pseudomonas aeruginosa assessed as susceptible isolates at minimum inhibitory concentration of 16 ug/ml by CLSI broth microdilution method; set-up: scale not given: the % may be the effect or the level left
Proteus mirabilis [35] = test: Antibacterial activity against Proteus mirabilis assessed as susceptible isolates at minimum inhibitory concentration of 4 ug/ml by CLSI broth microdilution method; set-up: scale not given: the % may be the effect or the level left
Klebsiella pneumoniae [36] = test: Antibacterial activity against ESBL-producing Klebsiella pneumoniae assessed as susceptible isolates at minimum inhibitory concentration of 2 ug/ml by CLSI broth microdilution method; set-up: scale not given: the % may be the effect or the level left
Klebsiella oxytoca [37] = test: Antibacterial activity against Klebsiella oxytoca assessed as susceptible isolates at minimum inhibitory concentration of 8 ug/ml by CLSI broth microdilution method; set-up: scale not given: the % may be the effect or the level left
Pseudomonas aeruginosa [38] = test: Antibacterial activity against MDR Pseudomonas aeruginosa assessed as susceptible isolates at minimum inhibitory concentration of 2 ug/ml by CLSI broth microdilution method; set-up: scale not given: the % may be the effect or the level left
Klebsiella aerogenes [39] = test: Antibacterial activity against Enterobacter aerogenes assessed as susceptible isolates at minimum inhibitory concentration of 1 ug/ml by CLSI broth microdilution method; set-up: scale not given: the % may be the effect or the level left
Klebsiella pneumoniae [40] = test: Antibacterial activity against ESBL-producing Klebsiella pneumoniae assessed as susceptible isolates at minimum inhibitory concentration of 0.5 ug/ml by CLSI broth microdilution method; set-up: scale not given: the % may be the effect or the level left

## COLISTIN
Serratia marcescens [1]
  Activity: 0%
Acinetobacter baumannii [2]
  Activity: 93.5%
Klebsiella pneumoniae [3]
  Activity: 10.5%
Enterobacter cloacae [4]
  Activity: 0%
Klebsiella aerogenes [5]
  Activity: 73%
Klebsiella aerogenes [6]
  Activity: 18.9%
Pseudomonas aeruginosa [7]
  Activity: 3.8%
Klebsiella pneumoniae [8]
  Activity: 95%
[9]
  Activity: 100%
Klebsiella pneumoniae [10]
  Activity: 97.7%
Enterobacter cloacae [11]
  Activity: 14%
Proteus mirabilis [12]
  Activity: 0%
Klebsiella pneumoniae [13]
  Activity: 97.9%
Pseudomonas aeruginosa [14]
  Activity: 33.3%
Enterobacter cloacae [15]
  Activity: 69.9%
Klebsiella aerogenes [16]
  Activity: 100%
Enterobacter cloacae [17]
  Activity: 85.5%
Pseudomonas aeruginosa [18]
  Activity: 42.1%
Klebsiella oxytoca [19]
  Activity: 95.4%
Klebsiella aerogenes [20]
  Activity: 0%
Serratia marcescens [21]
  Activity: 100%
Pseudomonas aeruginosa [22]
  Activity: 2.5%
Pseudomonas aeruginosa [23]
  Activity: 0%
Escherichia coli [24]
  Activity: 100%
Pseudomonas aeruginosa [25]
  Activity: 37.5%
Pseudomonas aeruginosa [26]
  Activity: 31.3%
Escherichia coli [27]
  Activity: 99.4%
Pseudomonas aeruginosa [28]
  Activity: 7.3%
Pseudomonas aeruginosa [29]
  Activity: 97.4%
Acinetobacter baumannii [30]
  Activity: 96.8%
Proteus mirabilis [31]
  Activity: 0%
Proteus mirabilis [32]
  Activity: 100%
[33]
  Activity: 15.7%
Pseudomonas aeruginosa [34]
  Activity: 99%
Proteus mirabilis [35]
  Activity: 0%
Klebsiella pneumoniae [36]
  Activity: 97.1%
Klebsiella oxytoca [37]
  Activity: 98.1%
Pseudomonas aeruginosa [38]
  Activity: 100%
Klebsiella aerogenes [39]
  Activity: 97.3%
Klebsiella pneumoniae [40]
  Activity: 77.9%
